SMILES strings stand for the structures. ± gives the expanded uncertainty stated by the source.

The results in this text go back to the NIST ThermoML archive (doi:10.1016/j.fluid.2013.05.016).

The conditions of this data set: Liquid; for mass density: 298.2 K, 101.33 kPa, Vibrating tube method; for vapor or sublimation pressure / Normal boiling temperature: Ebulliometric method (Recirculating still).

The mass density is the mass of a sample divided by its volume. For orientation: vapor or sublimation pressure means the equilibrium pressure above the liquid or solid. Consider `Cc1ccccc1C` [1,2-dimethylbenzene], for which the mass density came out at 875.66 ± 0.24 kg/m3 and the Normal boiling temperature is 144.4 ± 1 °C. Besides, under “417.5 K”, the “vapor or sublimation pressure” value is 101.3 ± 1.1 kPa.

Turning to `c1ccccc1` [benzene], the mass density is on record as 873.66 ± 0.24 kg/m3 and the Normal boiling temperature came out at 80.2 ± 1 °C. Also, where the note is “353.3 K”, the “vapor or sublimation pressure” value is reported as 101.3 ± 1.1 kPa.

`CCCCCCC` [heptane]: the mass density was 679.52 ± 0.24 kg/m3 and the Normal boiling temperature worked out at 98.2 ± 1 °C. For the same compound, where the note is “371.4 K”, the “vapor or sublimation pressure” value is on record as 101.3 ± 1.1 kPa.

Regarding `CCCCCCCCC` [nonane], the mass density is 714.07 ± 0.24 kg/m3 and the Normal boiling temperature came to 150.7 ± 1 °C. The “vapor or sublimation pressure” value (423.8 K) stood at 101.3 ± 1.1 kPa.

For the compound `Cc1ccccc1` [toluene], the mass density is 862.18 ± 0.24 kg/m3 and the Normal boiling temperature amounted to 110.2 ± 1 °C. Further, the “vapor or sublimation pressure” value (383.4 K) is recorded as 101.3 ± 1.1 kPa.
